Data: patent publication US7714134B2, “Compounds and use of tetrahydropyridothiophenes” (4SC AG, priority 2004, dated 2010)

Experiments:
[1] = tested on: RKO (RKOp27) human colon adenocarcinoma cells; assay: Alamar Blue cell viability assay, anti-proliferative/cytotoxic activity, RKO p27 uninduced; assay type: cell-based; conditions: RKOp27, 72 h, proliferating cells, absence of the inducer Ponasterone A, 72 hours incubation
Description: The anti-proliferative/cytotoxic activity of the compounds described herein, can be tested on subdlones of RKO (RKOp27) human colon adenocarcinoma cells (Schmidt et al., Oncogene 19, 2423-2429; 2000) using the Alamar Blue cell viability assay (described in O'Brien et al. Eur J Biochem 267, 5421-5426, 2000). The compounds are dissolved as 20 mM solutions in dimethylsulfoxide (DMSO) and subsequently diluted in semi-logarithmic steps. DMSO dilutions are further diluted 1:100 into Dulbecco's modified Eagle's medium (DMEM) containing 10% fetal calf serum to a final concentration twice as much as the final concentration in the test. RKO subclones are seeded into 96 well flat bottom plates at a density of 4000 cells per well in a volume of 50 µl per well. 24 hours after seeding the 50 μl each of the compound dilutions in DMEM medium are added into each well of the 96 Well plate. Each compound dilution is tested as quadruplicates. Wells containing untreated control cells are filled with 50 μl DMEM medium containing 1% DMSO. The cells are then incubated with the substances for 72 hours at 37° C. in a humidified atmosphere containing 5% carbon dioxide. To determine the viability of the cells, 10 μl of an Alamar Blue solution (Biosource) are added and the fluorescence is measured at an extinction of 544 nm and an emission of 590 nm. For the calculation of the cell viability the emission value from untreated cells is set as 100% viability and the emission rates of treated cells are set in relation to the values of untreated cells. Viabilities are expressed as % values.
The corresponding IC50 values of the compounds for anti-proliferative/cytotoxic activity are determined from the concentration-effect curves.
Representative IC50 values for anti-proliferation/cytotoxicity determined for the compounds mentioned and numbered as Examples in the examples above follow from the following table A (1st column), in which the numbers of the compound correspond to the numbers of the examples. Any or all of the compounds according to the present invention which are listed in the Table A, as well as their salts, are to be mentioned as a particular interesting subject of the present invention.

[2] = tested on: RKO colon adenocarcinoma cells (RKOp27) arrested by expression of ectopic p27Kip1; assay: Alamar Blue cell viability assay, cell cycle specific mode of action, RKO p27 induced (arrested by Ponasterone A-induced p27Kip1); assay type: cell-based; conditions: Homo sapiens, RKOp27, 72 h, cells arrested by p27Kip1 induced with 10 μM Ponasterone A, 72 hours incubation
Description: To determine the cell cycle specific mode of action, subdlones of RKO colon adenocarcinoma cells (RKOp27 or RKOp21 as described by Schmidt et al. in Oncogene 19, 2423-2429; 2000) are seeded into 96 well flat bottom plates at a density of 16000 cells per well in a volume of 50 μl per well in DMEM growth medium with 10% FCS containing 10 μM Ponasterone A. 24 hours after seeding the 50 μl each of the compound dilutions in DMEM medium are added into each well of the 96 Well plate. Each compound dilution is tested as quadruplicates. Wells containing untreated control cells are filled with 50 μl DMEM medium containing 1% DMSO. The cells are then incubated with the substances for 72 hours at 37° C. in a humidified atmosphere containing 5% carbon dioxide. To determine the viability of the cells, 10 μl of an Alamar Blue solution (Biosource) are added and the fluorescence was measured at an extinction of 544 nm and an emission of 590 nm. For the calculation of the cell viability the emission value from untreated cells is set as 100% viability and the emission rates of treated cells are set in relation to the values of untreated cells. Viabilities are expressed as % values. Viability is compared of proliferating cells grown in the absence of the inducer Ponasterone A, versus viability of cells arrested by the expression of ectopic p27Kip1 induced by Ponasterone A. The data of this experimental setting are summarized in table A (2nd column).

Compound | IC50 [1] [µM] | IC50 [2] [µM]
CCOC(=O)CC(=O)N1CCc2c(sc(NC(=O)c3ccccc3)c2C#N)C1 [Compound 31, 3-{3-Cyano-2-[(1-phenyl-methanoyl)-amino]-4,7-dihydro-5H-thieno[2,3-c]pyridin-6-yl}-3-oxo-propionic acid ethyl ester] | ≤ 3 | > 60
N#Cc1c(NC(=O)c2ccccc2)sc2c1CCN(C(=O)Cc1ccccn1)C2 [Compound 42, N-[3-Cyano-6-(2-pyridin-2-yl-ethanoyl)-4,5,7-tetrahydro-thieno[2,3-c]pyridin-2-yl]-benzamide] | ≤ 3 | > 60
N#Cc1c(NC(=O)c2ccccc2)sc2c1CCN(C(=O)OCCCc1ccccn1)C2 [Compound 71, 3-Cyano-2-[(1-phenyl-methanoyl)-amino]-4,7-dihydro-5H-thieno[2,3-c]pyridine-6-carboxylic acid 3-pyridin-2-yl-propyl ester] | ≤ 3 | > 60
COC(=O)COC(=O)N1CCc2c(sc(NC(=O)c3ccccc3)c2C#N)C1 [Compound 93, 3-Cyano-2-[(1-phenyl-methanoyl)-amino]-4,7-dihydro-5H-thieno[2,3-c]pyridine-6-carboxylic acid methoxycarbonylmethyl ester] | ≤ 3 | > 100
Cc1ncsc1CCOC(=O)N1CCc2c(sc(NC(=O)c3ccccc3)c2C#N)C1 [Compound 17] | ≤ 2 | > 100
CCCCCSC(=O)N1CCc2c(sc(NC(=O)c3ccccc3)c2C#N)C1 [Compound 101, 3-Cyano-2-[(1-phenyl-methanoyl)-amino]-4,7-dihydro-5H-thieno[2,3-c]pyridine6-carbothioic acid S-pentyl ester] | ≤ 3 | > 100
N#Cc1c(NC(=O)c2ccccc2)sc2c1CCN(C(=O)CCCc1c[nH]c3ccccc13)C2 [Compound 37, N-[3-Cyano-6-(4-1H-indol-3-yl-butanoyl)-4,5,6,7-tetrahydro-thieno[2,3-c]pyridin-2-yl]-benzamide] | ≤ 3 | > 60
N#Cc1c(NC(=O)c2ccccc2)sc2c1CCN(C(=O)OCCN1CCOCC1)C2 [Compound 67, 3-Cyano-2-[(1-phenyl-methanoyl)-amino]4,7-dihydro-5H-thieno[2,3-c]pyridine-6-carboxylic acid 2-morpholin-4-yl-ethyl ester] | ≤ 3 | > 60
COCCC(=O)N1CCc2c(sc(NC(=O)c3ccccc3)c2C#N)C1 [Compound 7, N-(3-Cyano-7-methoxyethylcarbonyl-4,5,6,7-tetrahydro-thien[2,3-c]pyridin-2-yl)-benzamide] | ≤ 2 | > 100
CCCCCCOC(=O)N1CCc2c(sc(NC(=O)c3ccccc3)c2C#N)C1 [Compound 57, 3-Cyano-2-[(1-phenyl-methanoyl)-amino]-4,7-dihydro-5H-thieno[2,3-c]pyridine-6-carboxylic acid hexyl ester] | ≤ 3 | > 60
N#Cc1c(NC(=O)c2ccccc2)sc2c1CCN(C(=O)CCc1cccnc1)C2 [Compound 41, N-[3-Cyano-6-(3-pyridin-3-yl-propanoyl)-4,5,6,7-tetrahydro-thieno[2,3-c]pyridin-2-yl]-benzamide] | ≤ 3 | > 60
CC(C)COC(=O)N1CCc2c(sc(NC(=O)c3ccccc3)c2C#N)C1 [Compound 56, 3-Cyano-2-[(1-phenyl-methanoyl)-amino]-4,7-dihydro-5H-thieno[2,3-c]pyridine-6-carboxylic acid isobutyl ester] | ≤ 3 | > 60
N#Cc1c(NC(=O)c2ccccc2)sc2c1CCN(C(=O)OCCc1ccncc1)C2 [Compound 73, 3-Cyano-2-[(1-phenyl-methanoyl)-amino]4,7-dihydro-5H-thieno[2,3-c]pyridine-6-carboxylic acid 2-pyridin4-yl-ethyl ester] | ≤ 3 | > 60
N#Cc1c(NC(=O)c2ccccc2)sc2c1CCN(C(=O)CCC(N)=O)C2 [Compound 8] | ≤ 2 | > 100
COc1cc(OC)cc(C(=O)Nc2sc3c(c2C#N)CCN(C(C)=O)C3)c1 [Compound 26, N-(6-Acetyl-3-cyano-4,5,6,7-tetrahydro-thieno[2,3-c]pyridin-2-yl)-3,5-dimethoxy-benzamide] | ≤ 2 | > 100
N#Cc1c(NC(=O)c2ccccc2)sc2c1CCN(C(=O)CCCc1cccs1)C2 [Compound 28, N-[3-Cyano6-(4-thiophen-2-yl-butanoyl)-4,5,6,7-tetrahydro-thieno[2,3-c]pryridin-2-yl]-benzamide] | ≤ 2 | > 100
COc1cccc(C(=O)Nc2sc3c(c2C#N)CCN(C(C)=O)C3)c1 [Compound 24, N-(6-Acetyl-3-cyano-4,5,6,7-tetrahydro-thieno[2,3-c]pyridin-2-yl)-3-methoxy-benzamide] | ≤ 2 | > 100
N#Cc1c(NC(=O)c2ccccc2)sc2c1CCN(C(=O)OCCn1ccnc1)C2 [Compound 95] | ≤ 3 | > 100
N#Cc1c(NC(=O)c2ccccc2)sc2c1CCN(C(=O)CCNC(=N)N)C2 [Compound 39, N-[3-Cyano6-(3-guanidino-propanoyl)-4,5,6.7-tetrahydro-thieno[2,3-c]pyridin-2-yl]-benzamide] | ≤ 3 | > 60
CCOC(=O)N1CCc2c(sc(NC(=O)c3cc(OC)cc(OC)c3)c2C#N)C1 [Compound 19, N-(6-Ethoxycarbonyl-3-cyano-4,5,6,7-tetrahydro-thieno[2,3-c]pyridin-2-yl)-3,5-dimethoxybenzamide] | ≤ 2 | > 100
COCC(=O)N1CCc2c(sc(NC(=O)c3ccccc3)c2C#N)C1 [Compound 32, N-[3-Cyano-6-(2-methoxy-ethanoyl)-4,6,7-tetrahydro-thieno[2,3-c]pyridin-2-yl]-benzamide] | ≤ 3 | > 60
N#Cc1c(NC(=O)c2ccccc2)sc2c1CCN(C(=O)CCc1c[nH]c3ccccc13)C2 [Compound 30, N-[3-Cyano-6-(3-1H-indol-3-yl-propanoyl)-4,5,6,7-tetrahydro-thieno[2,3-c]pyridin-2-yl]-benzamide] | ≤ 3 | > 60
CCSC(=O)N1CCc2c(sc(NC(=O)c3ccccc3)c2C#N)C1 [Compound 29, N-(3-Cyano-7-(ethylthiocarbonyl)-4,5,6,7-tetrahvdro-thieno[2,3-c]pyridin-2-yl)-benzamide] | ≤ 2 | > 100
CC1(C)OCC(COC(=O)N2CCc3c(sc(NC(=O)c4ccccc4)c3C#N)C2)O1 (stereo not shown) [Compound 74, 3-Cyano-2-[(1-phenyl-methanoyl)-amino]-4,7-dihydro-5H-thieno[2,3-c]pyridine-6-carboxylic acid 2,2-dimethyl-[1,3]dioxolan-4-ylmethyl ester] | ≤ 3 | > 60
N#Cc1c(NC(=O)c2ccccc2)sc2c1CCN(C(=O)OCc1ccccn1)C2 [Compound 62, 3-Cyano-2-[(1-phenyl-methanoyl)-amino]-4,7-dihydro-5H-thieno[2,3-c]pyridine-6-carboxylic acid pyridin-2-ylmethyl ester] | ≤ 3 | > 60
CCCOC(=O)N1CCc2c(sc(NC(=O)c3ccccc3)c2C#N)C1 [Compound 64, 3-Cyano-2-[(1-phenyl-methanoyl)-amino]-4,7-dihydro-5H-thieno[2,3-c]pyridine-6-carboxylic acid propyl ester] | ≤ 3 | > 60
